Reference: ChEMBL document CHEMBL1201862, “PubChem BioAssay data set” (2004)
Each block holds one molecule with its values, some of them ahead of it. Calls of active or inactive are those of the source.

What was measured:
[1] = biological target: T1, Neuropeptide Y receptor type 1 (Homo sapiens, UniProt P25929); assay type: functional;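 also: HEK293 cells with a CNG channel challenged with NPY then isoproterenol; potency as antagonist that reverses NPY suppression of cAMP signal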
T1 sequence (P25929 whole entry): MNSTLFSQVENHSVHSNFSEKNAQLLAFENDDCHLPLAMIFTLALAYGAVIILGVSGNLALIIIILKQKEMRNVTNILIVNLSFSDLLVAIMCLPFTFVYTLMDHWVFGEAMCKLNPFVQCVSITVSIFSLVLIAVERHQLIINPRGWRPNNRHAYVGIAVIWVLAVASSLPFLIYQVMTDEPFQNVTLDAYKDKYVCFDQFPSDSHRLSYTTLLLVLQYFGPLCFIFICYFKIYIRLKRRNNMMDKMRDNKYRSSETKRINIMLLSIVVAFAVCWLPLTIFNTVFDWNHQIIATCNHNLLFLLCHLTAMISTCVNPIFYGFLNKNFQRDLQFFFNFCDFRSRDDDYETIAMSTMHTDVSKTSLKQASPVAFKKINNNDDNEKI

[2] = biological target: T2, Neuropeptide Y receptor type 2 (Homo sapiens, UniProt P49146); assay type: functional, cell-based;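 also: HEK293 cells expressing the receptor and a CNG channel; stimulus was NPY near EC95 followed by isoproterenol to raise cAMP; antagonist potency measured as restoring cAMP signal that NPY suppresses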
T2 sequence (P49146 whole entry): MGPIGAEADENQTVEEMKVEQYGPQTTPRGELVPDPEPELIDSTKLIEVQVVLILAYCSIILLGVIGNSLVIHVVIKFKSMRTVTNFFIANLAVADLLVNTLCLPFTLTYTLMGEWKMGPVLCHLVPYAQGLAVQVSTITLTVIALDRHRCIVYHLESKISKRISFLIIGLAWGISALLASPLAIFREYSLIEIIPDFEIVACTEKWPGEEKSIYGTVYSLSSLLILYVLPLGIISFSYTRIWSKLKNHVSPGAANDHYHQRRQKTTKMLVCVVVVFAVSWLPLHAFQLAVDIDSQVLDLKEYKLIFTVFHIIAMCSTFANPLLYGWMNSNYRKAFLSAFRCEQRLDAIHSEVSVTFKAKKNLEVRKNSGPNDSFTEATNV

[3] = biological target: T3, High affinity choline transporter 1 (Homo sapiens, UniProt Q9GZV3); test: human choline transporter potentiators, potency – cell-based, 10-point CRC, membrane potential dye, dose response (AID 602376); assay type: functional
T3 sequence (Q9GZV3 whole entry): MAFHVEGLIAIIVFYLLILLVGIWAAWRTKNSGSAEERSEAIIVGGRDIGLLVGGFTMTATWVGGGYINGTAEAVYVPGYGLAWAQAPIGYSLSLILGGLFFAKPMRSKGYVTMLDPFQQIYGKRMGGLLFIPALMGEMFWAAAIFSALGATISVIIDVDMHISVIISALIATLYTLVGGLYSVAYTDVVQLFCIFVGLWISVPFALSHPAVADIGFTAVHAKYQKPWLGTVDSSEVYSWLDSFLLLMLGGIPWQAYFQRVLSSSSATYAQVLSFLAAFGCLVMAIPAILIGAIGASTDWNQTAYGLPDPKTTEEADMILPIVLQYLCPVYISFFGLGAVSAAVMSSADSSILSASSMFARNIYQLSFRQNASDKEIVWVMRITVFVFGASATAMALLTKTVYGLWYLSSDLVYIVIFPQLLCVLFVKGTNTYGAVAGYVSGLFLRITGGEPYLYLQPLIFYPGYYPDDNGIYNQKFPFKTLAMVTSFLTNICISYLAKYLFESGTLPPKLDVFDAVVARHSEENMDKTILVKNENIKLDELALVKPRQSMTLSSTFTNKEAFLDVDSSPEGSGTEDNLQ

[4] = biological target: Protein disulfide-isomerase (Homo sapiens, UniProt P07237); test: inhibition of PDI-driven insulin aggregation – biochemical, turbidity, absorbance, cherry-picked samples, dose response (AID 602350); assay type: functional
Chain of Protein disulfide-isomerase (P07237 whole entry): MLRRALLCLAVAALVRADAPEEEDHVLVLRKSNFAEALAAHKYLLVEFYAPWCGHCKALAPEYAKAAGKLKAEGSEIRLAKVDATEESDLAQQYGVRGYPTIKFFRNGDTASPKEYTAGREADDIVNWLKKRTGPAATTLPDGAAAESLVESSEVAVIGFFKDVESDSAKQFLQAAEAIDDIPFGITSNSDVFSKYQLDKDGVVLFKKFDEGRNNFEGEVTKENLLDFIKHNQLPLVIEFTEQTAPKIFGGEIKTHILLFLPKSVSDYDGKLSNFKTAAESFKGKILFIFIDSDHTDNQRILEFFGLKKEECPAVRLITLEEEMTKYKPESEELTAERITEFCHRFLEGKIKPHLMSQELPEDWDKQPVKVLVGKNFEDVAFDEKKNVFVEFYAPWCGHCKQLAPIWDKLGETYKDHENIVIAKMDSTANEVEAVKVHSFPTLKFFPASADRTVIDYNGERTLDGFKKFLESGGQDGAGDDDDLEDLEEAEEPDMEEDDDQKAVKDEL

[5] = biological target: Glycogen synthase kinase-3 alpha (Homo sapiens, UniProt P49840); test: Inhibition of Human GSK-3 alpha Activity Measured in Biochemical System Using Microfluidics - 2063-06_Inhibitor_Dose_DryPowder_Activity_Set2. [Related pubchem assays (depositor defined):AID2709]
Chain of Glycogen synthase kinase-3 alpha (P49840 whole entry): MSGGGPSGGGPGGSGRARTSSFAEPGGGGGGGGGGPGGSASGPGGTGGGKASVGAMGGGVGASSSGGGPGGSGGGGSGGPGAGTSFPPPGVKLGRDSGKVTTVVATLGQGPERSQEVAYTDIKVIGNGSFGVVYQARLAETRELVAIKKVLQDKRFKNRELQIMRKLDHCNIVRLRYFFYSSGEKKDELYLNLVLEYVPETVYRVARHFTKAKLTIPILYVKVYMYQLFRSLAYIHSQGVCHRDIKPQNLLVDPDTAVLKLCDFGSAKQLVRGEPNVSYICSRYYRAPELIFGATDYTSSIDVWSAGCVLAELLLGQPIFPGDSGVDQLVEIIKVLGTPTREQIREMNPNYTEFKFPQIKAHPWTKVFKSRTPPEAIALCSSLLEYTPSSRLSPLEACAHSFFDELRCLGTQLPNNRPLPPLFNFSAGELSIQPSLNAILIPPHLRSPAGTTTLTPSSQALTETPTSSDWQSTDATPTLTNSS

[6] = biological target: Glycogen synthase kinase-3 beta (Homo sapiens, UniProt P49841); test: Inhibition of Human GSK-3 beta Activity Measured in Biochemical System Using Microfluidics - 2063-05_Inhibitor_Dose_DryPowder_Activity_Set2. [Related pubchem assays (depositor defined):AID2709]
Chain of Glycogen synthase kinase-3 beta (P49841 whole entry): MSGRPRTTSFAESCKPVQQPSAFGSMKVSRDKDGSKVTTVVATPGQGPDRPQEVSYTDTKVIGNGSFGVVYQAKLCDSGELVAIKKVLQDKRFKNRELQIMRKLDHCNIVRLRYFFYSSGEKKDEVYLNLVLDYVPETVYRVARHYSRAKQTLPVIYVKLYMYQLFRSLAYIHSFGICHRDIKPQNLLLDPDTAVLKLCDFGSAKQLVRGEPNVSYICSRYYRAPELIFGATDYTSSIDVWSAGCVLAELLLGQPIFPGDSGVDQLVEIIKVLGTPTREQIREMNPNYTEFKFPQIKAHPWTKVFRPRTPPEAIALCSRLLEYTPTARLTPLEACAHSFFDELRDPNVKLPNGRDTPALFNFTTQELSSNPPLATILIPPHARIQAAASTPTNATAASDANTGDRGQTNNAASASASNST

Cytochrome P450 2D6 = Cytochrome P450 2D6 (Homo sapiens, UniProt P10635);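 also: CYP2D6 member of a cytochrome P450 panel assay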
Chain of Cytochrome P450 2D6 (P10635 whole entry): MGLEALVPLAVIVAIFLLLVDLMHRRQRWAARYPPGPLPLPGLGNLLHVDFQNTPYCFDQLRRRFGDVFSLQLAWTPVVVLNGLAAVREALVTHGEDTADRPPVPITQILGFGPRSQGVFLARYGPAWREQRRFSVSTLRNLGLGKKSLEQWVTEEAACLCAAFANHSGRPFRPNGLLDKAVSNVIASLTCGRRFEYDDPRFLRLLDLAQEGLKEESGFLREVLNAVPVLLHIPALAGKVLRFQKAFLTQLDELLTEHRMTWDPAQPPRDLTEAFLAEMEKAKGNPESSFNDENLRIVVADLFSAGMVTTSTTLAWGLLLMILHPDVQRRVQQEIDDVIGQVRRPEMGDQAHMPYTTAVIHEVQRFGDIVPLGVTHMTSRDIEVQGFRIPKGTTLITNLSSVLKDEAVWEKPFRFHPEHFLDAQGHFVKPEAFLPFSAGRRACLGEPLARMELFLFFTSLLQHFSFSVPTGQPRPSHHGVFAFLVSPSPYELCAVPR

Cytochrome P450 2C9 = Cytochrome P450 2C9 (Homo sapiens, UniProt P11712)
Chain of Cytochrome P450 2C9 (P11712 whole entry): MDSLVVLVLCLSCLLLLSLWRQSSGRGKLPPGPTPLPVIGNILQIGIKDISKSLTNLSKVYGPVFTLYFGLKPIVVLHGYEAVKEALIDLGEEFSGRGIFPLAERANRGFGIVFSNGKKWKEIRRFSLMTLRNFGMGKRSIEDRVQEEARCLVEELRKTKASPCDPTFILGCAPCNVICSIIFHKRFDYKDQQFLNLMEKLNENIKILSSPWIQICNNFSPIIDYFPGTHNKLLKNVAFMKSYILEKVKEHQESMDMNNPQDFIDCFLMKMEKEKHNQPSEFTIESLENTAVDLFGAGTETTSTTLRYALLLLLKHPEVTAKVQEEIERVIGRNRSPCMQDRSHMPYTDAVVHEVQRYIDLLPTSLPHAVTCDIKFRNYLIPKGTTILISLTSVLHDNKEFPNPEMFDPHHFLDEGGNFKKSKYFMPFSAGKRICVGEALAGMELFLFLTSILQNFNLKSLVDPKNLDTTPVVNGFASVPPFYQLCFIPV

Caspase-3 = biological target: T4, Caspase-3 (Homo sapiens, UniProt P42574); test: inhibition of recombinant caspase-3 activity – biochemical, luminescence, set 2, selectivity assay for SENP protease inhibitor project, SAR follow-up (AID 588599); assay type: functional
T4 sequence (P42574 whole entry): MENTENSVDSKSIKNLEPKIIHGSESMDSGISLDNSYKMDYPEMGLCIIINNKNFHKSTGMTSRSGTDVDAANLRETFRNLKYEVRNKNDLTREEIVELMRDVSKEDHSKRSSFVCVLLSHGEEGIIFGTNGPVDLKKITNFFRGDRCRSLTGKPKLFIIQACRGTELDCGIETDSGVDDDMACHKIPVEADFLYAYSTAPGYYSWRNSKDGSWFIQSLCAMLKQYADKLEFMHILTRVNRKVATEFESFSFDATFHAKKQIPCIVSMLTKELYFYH

[7] = biological target: T5, Sentrin-specific protease 8 (Homo sapiens, UniProt Q96LD8); test: inhibition of sentrin protease 8 – biochemical, luminescence, set 2, SAR follow-up (AID 588601); assay type: functional
T5 sequence (Q96LD8 whole entry): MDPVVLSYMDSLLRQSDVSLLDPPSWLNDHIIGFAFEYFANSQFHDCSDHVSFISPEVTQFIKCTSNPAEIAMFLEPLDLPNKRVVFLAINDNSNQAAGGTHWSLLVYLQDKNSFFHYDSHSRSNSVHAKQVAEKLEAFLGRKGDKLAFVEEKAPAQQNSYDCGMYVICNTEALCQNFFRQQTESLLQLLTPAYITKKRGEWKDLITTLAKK

[8] = biological target: T6, Sentrin-specific protease 7 (Homo sapiens, UniProt Q9BQF6); test: inhibition of human SENP7 cleavage activity – biochemical, luminescence, set 2, SAR follow-up (AID 588600); assay type: functional
T6 sequence (Q9BQF6 whole entry): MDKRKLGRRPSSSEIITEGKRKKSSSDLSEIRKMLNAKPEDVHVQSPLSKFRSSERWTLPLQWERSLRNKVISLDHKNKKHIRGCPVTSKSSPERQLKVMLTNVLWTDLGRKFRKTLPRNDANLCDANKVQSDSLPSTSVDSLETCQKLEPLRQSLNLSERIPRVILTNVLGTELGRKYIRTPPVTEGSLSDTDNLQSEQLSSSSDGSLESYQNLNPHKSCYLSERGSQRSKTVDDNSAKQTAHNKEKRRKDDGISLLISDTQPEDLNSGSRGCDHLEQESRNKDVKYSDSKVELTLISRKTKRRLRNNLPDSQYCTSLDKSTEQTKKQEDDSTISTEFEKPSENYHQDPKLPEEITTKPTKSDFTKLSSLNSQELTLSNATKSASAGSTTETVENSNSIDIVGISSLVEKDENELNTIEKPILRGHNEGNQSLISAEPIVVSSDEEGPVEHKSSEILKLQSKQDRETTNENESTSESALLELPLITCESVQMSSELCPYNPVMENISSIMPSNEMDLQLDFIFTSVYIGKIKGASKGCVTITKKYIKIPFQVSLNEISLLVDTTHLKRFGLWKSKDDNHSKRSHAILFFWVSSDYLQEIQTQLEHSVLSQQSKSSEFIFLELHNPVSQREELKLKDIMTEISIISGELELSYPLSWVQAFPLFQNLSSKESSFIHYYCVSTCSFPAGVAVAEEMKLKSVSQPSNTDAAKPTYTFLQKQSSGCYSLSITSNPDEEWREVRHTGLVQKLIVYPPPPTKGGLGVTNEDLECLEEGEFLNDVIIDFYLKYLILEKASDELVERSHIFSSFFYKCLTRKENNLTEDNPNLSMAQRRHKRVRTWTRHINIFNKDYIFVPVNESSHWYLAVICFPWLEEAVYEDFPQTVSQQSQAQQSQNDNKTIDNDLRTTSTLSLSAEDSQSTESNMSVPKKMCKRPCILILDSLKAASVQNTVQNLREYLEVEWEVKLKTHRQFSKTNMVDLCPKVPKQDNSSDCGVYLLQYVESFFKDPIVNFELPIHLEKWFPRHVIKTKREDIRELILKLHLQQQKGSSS

[9] = biological target: T7, Sentrin-specific protease 6 (Homo sapiens, UniProt Q9GZR1); test: inhibition of human SENP6 catalytic domain – biochemical, luminescence, set 2, SAR follow-up (AID 588598); assay type: functional
T7 sequence (Q9GZR1 whole entry): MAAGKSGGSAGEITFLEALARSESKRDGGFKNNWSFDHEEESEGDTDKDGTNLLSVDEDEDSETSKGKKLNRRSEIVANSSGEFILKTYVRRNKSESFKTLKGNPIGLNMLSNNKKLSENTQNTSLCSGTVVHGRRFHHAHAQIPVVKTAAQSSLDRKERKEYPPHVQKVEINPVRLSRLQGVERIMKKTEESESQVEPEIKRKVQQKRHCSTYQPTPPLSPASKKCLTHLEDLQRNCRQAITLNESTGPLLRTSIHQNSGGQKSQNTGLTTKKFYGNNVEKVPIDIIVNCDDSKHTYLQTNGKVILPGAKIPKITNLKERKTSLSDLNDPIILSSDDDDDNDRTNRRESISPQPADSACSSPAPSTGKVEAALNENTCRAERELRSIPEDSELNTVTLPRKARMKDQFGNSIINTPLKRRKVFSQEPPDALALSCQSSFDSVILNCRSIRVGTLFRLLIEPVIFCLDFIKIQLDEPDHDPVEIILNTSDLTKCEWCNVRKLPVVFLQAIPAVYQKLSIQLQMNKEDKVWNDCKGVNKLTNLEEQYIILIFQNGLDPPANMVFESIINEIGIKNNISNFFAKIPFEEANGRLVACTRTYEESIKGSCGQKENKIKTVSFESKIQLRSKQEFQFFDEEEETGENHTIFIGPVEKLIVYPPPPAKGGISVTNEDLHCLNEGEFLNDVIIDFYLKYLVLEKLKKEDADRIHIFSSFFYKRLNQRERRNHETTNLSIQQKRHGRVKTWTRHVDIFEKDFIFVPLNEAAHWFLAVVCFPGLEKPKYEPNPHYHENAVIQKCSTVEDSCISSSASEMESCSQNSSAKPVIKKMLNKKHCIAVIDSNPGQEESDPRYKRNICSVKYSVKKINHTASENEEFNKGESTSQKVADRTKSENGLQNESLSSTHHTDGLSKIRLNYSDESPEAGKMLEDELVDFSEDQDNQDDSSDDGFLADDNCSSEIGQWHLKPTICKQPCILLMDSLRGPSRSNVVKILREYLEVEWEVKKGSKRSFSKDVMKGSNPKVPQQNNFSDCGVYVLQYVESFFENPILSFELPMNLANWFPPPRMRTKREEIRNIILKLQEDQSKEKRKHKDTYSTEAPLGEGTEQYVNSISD

[10] = biological target: Vascular endothelial growth factor receptor 2 (Homo sapiens, UniProt P35968); assay type: functional
Chain of Vascular endothelial growth factor receptor 2 (P35968 whole entry): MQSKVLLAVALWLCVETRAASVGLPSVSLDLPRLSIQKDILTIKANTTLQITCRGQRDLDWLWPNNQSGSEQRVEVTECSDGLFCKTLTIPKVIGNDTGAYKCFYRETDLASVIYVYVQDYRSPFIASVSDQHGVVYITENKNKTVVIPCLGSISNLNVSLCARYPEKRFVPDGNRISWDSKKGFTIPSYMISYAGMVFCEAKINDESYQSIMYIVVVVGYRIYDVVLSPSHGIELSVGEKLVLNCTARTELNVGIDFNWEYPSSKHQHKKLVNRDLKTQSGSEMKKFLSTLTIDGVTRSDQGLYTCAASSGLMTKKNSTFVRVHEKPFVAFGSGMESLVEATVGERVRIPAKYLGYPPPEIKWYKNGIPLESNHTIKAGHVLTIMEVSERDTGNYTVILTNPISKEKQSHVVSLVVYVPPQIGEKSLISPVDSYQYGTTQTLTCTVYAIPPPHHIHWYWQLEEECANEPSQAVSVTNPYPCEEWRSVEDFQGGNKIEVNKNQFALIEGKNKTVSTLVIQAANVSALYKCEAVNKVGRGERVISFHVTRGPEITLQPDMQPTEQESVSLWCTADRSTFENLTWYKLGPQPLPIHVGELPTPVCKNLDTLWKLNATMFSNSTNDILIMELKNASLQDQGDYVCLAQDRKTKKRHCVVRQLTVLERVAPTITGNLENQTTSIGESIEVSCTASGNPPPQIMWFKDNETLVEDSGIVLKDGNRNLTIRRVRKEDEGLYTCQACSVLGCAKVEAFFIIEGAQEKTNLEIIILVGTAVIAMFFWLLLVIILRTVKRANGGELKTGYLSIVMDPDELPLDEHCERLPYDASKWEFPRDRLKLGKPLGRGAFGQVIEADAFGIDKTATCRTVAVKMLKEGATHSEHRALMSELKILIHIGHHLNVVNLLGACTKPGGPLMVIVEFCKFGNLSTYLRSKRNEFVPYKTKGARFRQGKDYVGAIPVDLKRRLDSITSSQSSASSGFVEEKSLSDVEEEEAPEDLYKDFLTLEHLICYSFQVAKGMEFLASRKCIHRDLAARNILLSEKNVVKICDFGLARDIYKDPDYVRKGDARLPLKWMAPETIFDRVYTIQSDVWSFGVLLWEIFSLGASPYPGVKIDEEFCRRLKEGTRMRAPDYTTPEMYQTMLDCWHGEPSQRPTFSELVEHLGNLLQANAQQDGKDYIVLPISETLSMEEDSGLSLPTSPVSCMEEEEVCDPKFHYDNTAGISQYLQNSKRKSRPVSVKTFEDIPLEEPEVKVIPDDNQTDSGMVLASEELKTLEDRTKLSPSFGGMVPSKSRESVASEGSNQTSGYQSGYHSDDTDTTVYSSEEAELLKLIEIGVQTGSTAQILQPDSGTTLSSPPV

Aurora kinase B = Aurora kinase B (Homo sapiens, UniProt Q96GD4); assay type: functional
Chain of Aurora kinase B (Q96GD4 whole entry): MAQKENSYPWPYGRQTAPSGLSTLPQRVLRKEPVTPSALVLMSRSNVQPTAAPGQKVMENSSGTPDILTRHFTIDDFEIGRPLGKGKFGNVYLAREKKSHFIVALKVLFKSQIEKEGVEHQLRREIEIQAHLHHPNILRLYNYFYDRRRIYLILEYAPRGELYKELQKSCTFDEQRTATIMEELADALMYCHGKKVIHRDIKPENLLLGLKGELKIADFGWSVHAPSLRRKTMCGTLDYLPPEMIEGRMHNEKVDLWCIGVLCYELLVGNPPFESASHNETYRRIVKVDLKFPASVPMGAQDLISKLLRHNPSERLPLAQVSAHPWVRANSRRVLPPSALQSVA

AC50 [4]: 10.2 µM (active)
Structure (SMILES): C[C@@H]1O[C@@H](O[C@@H]2C(=O)c3c(O)cc(O)cc3O[C@H]2c2ccc(O)c(O)c2)[C@H](O)[C@H](O)[C@H]1O

IC50 (Caspase-3): > 99 µM (inactive)
IC50 [8]: > 99 µM (inactive)
IC50 [9]: > 99 µM (inactive)
Structure (SMILES): Cc1ccc(-c2cc(CNC(=O)C(=O)c3c[nH]c4ccccc34)no2)cc1
IC50 [7]: > 99 µM (inactive)

Ki [10]: 1.26 µM (active)
Ki (Aurora kinase B): 1.26 µM (active)
Structure (SMILES): COc1ccc(-c2cc(-c3ccccc3)nc3ncnc(NC(=O)COCC(=O)O)c23)cc1

Second part, the molecule before the results:

Structure (SMILES): CCC1=Nc2ccc(Br)cc2C(c2ccccc2)N1CC(=O)OC (centres undefined)
IC50 [1]: 13.2 µM (not active)
IC50 [2]: > 35 µM (not active)
EC50 [3]: 14.3 µM (active)

Structure (SMILES): Cn1c(SCc2nnc(-c3ccc(F)cc3)o2)nnc1C1COc2ccccc2O1 (centres undefined)
AC50 [5]: 1.33 µM (active)
AC50 [6]: 0.7 µM (active)
AC50 (Cytochrome P450 2D6): 5.01 µM (inconclusive)
AC50 (Cytochrome P450 2C9): inconclusive
